Measured values from a melting point compilation (Tetko et al.; mined from patent text by program, amines drawn as free bases though some values may be those of a salt).

SMILES | melting point [°C]
Nc1c([N+](=O)[O-])cc(F)c(F)c1Cl | 86 to 88
Nc1nnc(Sc2ccccc2)s1 | 202 to 203
CC(C)Cn1c(=O)n(C)c(=O)c2c(C#CCCO)n(Cc3cccc4ccccc34)cc21 | 170 to 171
CCOC(=O)c1c(SC)nc(-c2ccc(F)cc2)n(-c2ccc(SC)cc2)c1=O | 166 to 169
Cc1ccccc1COc1cccnc1NC(=S)Nc1ccc(Cl)cc1 | 181 to 183
Cc1c(Cc2ccccc2)c(=O)oc2cc(OCC3NOC(=O)N3)cc(OCC3NOC(=O)N3)c12 (centres undefined) | 130 to 136
COc1ccccc1-n1c(=O)[nH]c2c(C(N)=O)nc(-c3cccc4[nH]ccc34)nc21 | 312 to 313
O=C(CCCOc1ccc(C=Cc2ccncc2)cc1)Nc1nnn[nH]1 | 274 to 276
CCNC(=O)Nc1ccc(-c2sc3c(c2CN(C)CCOCCOCC)c(=O)n(-c2ccccc2)c(=O)n3Cc2c(F)cccc2F)cc1 | 230 to 233
CC=CC(=O)N(CCCCC(=O)O)C(c1ccccc1)c1ccccc1 | 88 to 89
CCOC(=O)c1c(Nc2ccccc2)nc2ccc(Br)cc2c1Cl | 171 to 172
NS(=O)(=O)c1ccc(-n2nc(C(F)(F)F)cc2-c2ccc(-c3ccco3)cc2)c(F)c1 | 174
O=C(CCCl)c1cc2ccccc2o1 | 116 to 118
O=C(N[C@@H](Cc1ccccc1)C(=O)Nc1nncs1)OCc1ccccc1 | 78 to 83
C#CCN(c1cc(-c2ccnc3c(C(=O)c4cccs4)cnn23)ccc1F)S(C)(=O)=O | 149 to 153
CC(=O)SC1NC(=O)C1Cc1ccccc1 (centres undefined) | 42 to 43
CC(C)c1cc(C(=O)CI)cc(C(C)C)c1O | 127 to 128
COc1ccc(C(O)CN)cc1OC (centres undefined) | 80 to 81
CCN(CC)C(=O)COC(=O)c1ccc(O)cc1 | 148 to 149
CCOC(=O)c1cn(C(=O)c2ccccc2)c2sc(-c3ccc(OC)cc3)c(CBr)c2c1=O | 124 to 126
CCc1nc(C(=O)NCC(C=C(C)C(CC)[N+](=O)[O-])=NO)c[nH]1 (centres undefined) | 75 to 79
CC(C)c1cccc(C(C)C)c1NC(=O)[C@H](Cc1ccc(OCc2ccccc2)cc1)NC(=O)OCC1c2ccccc2-c2ccccc21 | 168 to 171
c1ccc(Nc2nccc(-c3ccc(-c4ccc(N(c5ccccc5)c5ccccc5)cc4)cc3)n2)cc1 | > 300
CC(C)C(Oc1ccccc1)C(=O)OC1CC(O)C=C2C=CC(C)C(CCC3CC(O)CC(=O)O3)C21 (mixture of isomers) | 143 to 145
COc1ccc(CCn2ccc3ccc(-c4cccc(C(=O)NCCN(C)C)c4)nc32)cc1OC | 97 to 98

SMILES | melting point [°C]
COc1ccc(-n2cnc3ccc(-c4nnc(CCc5cccc(F)c5)o4)cc32)cc1 | 145 to 147
CCCCc1nn(-c2ccc(C(F)(F)F)cn2)cc1C(=O)OCC | 58 to 59
CC(C)(C)[Si](Oc1ccc(Br)cc1)(c1ccccc1)c1ccccc1 | 56
CCOC(=O)CC1CCC(CCNS(=O)(=O)c2ccc(Br)cc2)CC1 (centres undefined) | 62
CCOC(=O)C1(NS(=O)(=O)c2ccc(F)cc2)CCCCC1 | 96 to 98
O=c1c2ccccc2nc(-c2sc(Nc3ccc(Cl)cc3)nc2-c2ccccc2)n1-c1ccccc1 | > 275
CCC(=O)Nc1nnc2c3c(c(N4CCCCC4)nn12)CCCC3 | 173 to 174
O=c1c(O)c(-c2ccc3c(c2)OC(c2ccccc2)(c2ccccc2)O3)oc2cc(O)cc(O)c12 | 239 to 240
O=c1c(-c2ccccc2)c(CNc2ncnc3[nH]cnc23)oc2ccc(F)cc12 | 183 to 186
CCOC(=O)NC(=S)Nc1cc(Br)ccn1 | 107 to 110
COc1cc(C(C)C)c(Oc2cnc(N)nc2N)cc1I | 204 to 206
COC(=O)C1=CC=C(/C=C/c2ccc(OC)cc2)C2=CC(C(C)C)=CC=C(C)C2=C1C(=O)OC | 161 to 162
O=C(Nc1ccc2c(c1)CCC2)c1ccccc1C(c1ccc(O)cc1)c1ccc(O)cc1 | 220 to 223
O=C(O)CCCCNS(=O)(=O)c1ccc(N2CCCCC2)cc1 | 115 to 120
COc1ccc(-n2nc(C(=O)CCCO)cc2-c2ccc(S(C)(=O)=O)cc2)cc1 | 125 to 127
COC(=O)CCc1cc2c(s1)-n1c(C)nnc1C(C)N=C2c1ccccc1Cl (centres undefined) | 131 to 132
C(#Cc1ccccn1)CCc1nc(-c2ccc3ccccc3c2)no1 | 76 to 78
CCCCOC(=O)OCN1C(=O)CN(CCN2CC(=O)N(COC(=O)OCCCC)C(=O)C2)CC1=O | 68 to 71
CC(=O)Nc1ccccc1NS(=O)(=O)c1cc(C(=O)O)cc([N+](=O)[O-])c1Cl | 225 to 227
COCCOCONC(=O)c1nc(-c2ccc(Cl)c(OC)c2F)cc(N)c1Cl | 126 to 128
CCOC(=O)c1c(OCC)nsc1NC(=O)Oc1ccccc1 | 130
CC(C)n1nc(COc2ccccc2CC(=O)O)cc1OCc1ccc2ccccc2n1 | 116 to 117
Cc1cc(C)c(N)cn1 | 62 to 64
COc1ccccc1-n1c(=O)[nH]c2c(C(N)=O)nc(Nc3cccc(O)c3)nc21 | 190 to 191

Further lines, results first:

melting point [°C] | SMILES
113 to 115 | CC(C)N1Cc2cc(CO)ccc2N(CCN2CC=C(c3c[nH]c4cc(F)ccc34)CC2)S1(=O)=O
176 to 182 | CN1CN(C)c2nc3n(Cc4ccccc4)c(=O)cc(O)n3c2C1=O
142 to 143 | Cc1ccc(OCC(=O)N(Cc2nc(-c3ccc(C)cc3)no2)C(C)C)cc1
161 to 163 | CN(C)c1ccc(C=C2Cc3cc4c(cc3C2=O)CCCC4)cc1
194 to 195 | O=C(O)c1cc2c3ccccc3n(Cc3ccccc3)c2s1
271 to 273 | O=C(O)c1cn([C@@H]2C[C@@H]2F)c2c(F)c(N3C[C@@H]4CCCN[C@@H]4C3)c(F)cc2c1=O
183 to 185 | CN(C)C1=CC(=NS(=O)(=O)c2cccs2)c2ccccc2C1=O
176 | COc1cc(NC(C)=O)c(Cl)cc1C(=O)N[C@H]1CCN(CCCOc2ccc(F)cc2)C[C@H]1OC (relative stereo)
188 to 189 | Cc1cc(N2CCN(c3nc(-c4ccccc4)nc(C)c3C)CC2)cc(C)c1O
208 to 210 | Nc1ccccc1NC(=O)c1cc2cccc(OCC(=O)O)c2o1
98 to 100 | COc1cccc(CN2CCN(CC(=O)N3CC=C(c4ccccc4)n4ncc(C#N)c43)CC2)c1
209 to 211 | O=C1NN=C(c2cc3ccccc3o2)CO1
177 | Cc1cc(C)c2nc(NC3CCN(CCO)CC3)n(Cc3nc(C)ccc3O)c2c1
169 to 171 | CC(=O)Nc1ccc(N2CCN(c3ccc(OCC(O)(Cn4cncn4)c4ccc(Cl)cc4Cl)cc3)CC2)cc1 (centres undefined)
310 to 312 | CNC(=O)c1ccc(C(=O)Nc2cccc(C3=NC(C)(C)Cc4cc(OC)c5c(c43)CC(C)(C)O5)c2)cc1
207 to 210 | COc1cc(/C=C/C(=O)Nc2ccccc2C(=O)O)ccc1OCC1CCCCC1
174 to 175 | CC1(C)CC2(CC(C)(C)c3ccc(Oc4cccc([N+](=O)[O-])c4)cc32)c2cc(Oc3cccc([N+](=O)[O-])c3)ccc21
104 to 106 | COC(=O)C(Oc1cc(OCc2ccsc2)ccc1C#N)c1ccccc1F (racemic)
187 to 189 | COc1cc2c(cc1C(F)(F)F)N(C(=O)Nc1ccc(OCc3ccncc3)nc1)CC2
169 to 176 | CNC(=O)CN1CCc2ccc(Nc3ncc(Cl)c(Nc4ccc(N5CCOCC5)cc4OC)n3)cc2CC1
170 to 172 | CCOC(=O)C(C#N)=CNc1ccc(C)cn1
304 to 306 | O=C(O)c1ccc2c(c1)Sc1ccc([N+](=O)[O-])cc1C=C2
84 to 85 | CC(=O)OC1Cc2ccc([N+](=O)[O-])cc2C1 (centres undefined)

melting point [°C] | SMILES
65 to 67 | CCCC(C)(C)c1nsc(N=CN(C)C)c1C#N
216 to 218 | O=C(Cl)c1ccc2c(c1)C(C(F)(F)F)(C(F)(F)F)c1cc(C(=O)Cl)ccc1O2
84 to 86 | CC(=O)Oc1cc(Cl)c(Cl)c(Cl)c1N1CC(O)CC1=O (centres undefined)
118 to 119 | OCCOc1ccc2ccn(C3CCN(CCc4ccc(F)cc4)CC3)c2c1
126 to 127 | COc1ccc(C2=NN(c3ccc(CCBr)cc3)C(=O)[C@H]3CC=CC[C@@H]23)cc1OC (relative stereo)
179 to 181 | CCCCN1CCC(n2c(=O)[nH]c3ccc(Br)cc32)CC1
178 to 179 | CN(c1cccc2cc(C3=NCC(C)(C#N)S3)[nH]c12)S(=O)(=O)c1cccs1 (centres undefined)
114 to 117 | CC(=O)c1ccc(NS(C)(=O)=O)c(C(=O)c2ccc(F)cc2F)c1
165 to 166 | CCOC(=O)C(c1ccncc1)C(c1ccccc1)c1ccc(OC)c(OC2CCCC2)c1 (centres undefined)
124 to 126 | COc1cc(OCc2ccccc2)c(C23CC4CC(CC(C4)C2)C3)cc1Br
155 to 164 | Cc1cc(O)c2cccc(OCc3ccccc3)c2n1
181 to 183 | Cc1ccc(C)n1CCC1SCCC(=O)NC1C(N)=O (centres undefined)
206 | CC(C)C(c1ccc(N)c([N+](=O)[O-])c1)n1cncn1 (centres undefined)
247 to 249 | O=C1CCC(N2C(=O)c3cccc(OCc4cc5ccccc5s4)c3C2=O)C(=O)N1 (centres undefined)
271 to 272 | Cc1cc(-n2cnnn2)cc2c1NC(=O)CC2
160 to 161 | OC(c1cc(F)ccc1F)c1cc(Cl)ncc1Cl (centres undefined)
162 to 163 | Cc1cnc(-c2ssc(=S)c2C)cn1
163 to 164 | C[C@H](c1ccccc1)N1C(=O)N(Cc2ccccc2)[C@@H]2C(=O)OC[C@@H]21
272 to 274 | CC1(C)Oc2ccc(C#N)cc2[C@@H](N2CCSC2=NC#N)[C@@H]1O
208 to 209 | Cc1c(F)cccc1Cc1c(-c2ccccc2)c2cc(C=O)cnn2c1C(=O)N1CCN(C(=O)OC(C)(C)C)CC1
148 to 150 | Cc1c(F)c(N2CCN(C=O)C(C)C2)cc2c1C(=O)C(C=O)CN2C1CC1 (centres undefined)
88 to 89 | O=C(c1ccc(-c2ccc(Cl)cc2)o1)C1CC1
